Patent publication US8394787B2, “7-aza-spiro[3.5]nonane-7-carboxylate derivatives, preparation thereof and therapeutic use thereof” (Sanofi, priority 2009, dated 2013)
pIC50: −log10 of the molar value.

Legend:
[1] = target: T1, enzyme FAAH (Fatty Acid Amide Hydrolase) (Mus musculus, UniProt O08914); test: FAAH radio-enzymatic test, hydrolysis of [1-3H ethanolamine] anandamide (protocol 1); format: biochemical; details: mouse brain membrane homogenate, anandamide 10 μM, 20 mins preincubation at 25° C., read-out: IC50 (concentration inhibiting 50% of the control enzymatic activity of FAAH)
T1 construct: The membrane homogenates are prepared extemporaneously by homogenizing the tissues; from tissue; host or cells: mouse brain (minus the cerebellum), homogenate
T1 sequence (O08914 1-579): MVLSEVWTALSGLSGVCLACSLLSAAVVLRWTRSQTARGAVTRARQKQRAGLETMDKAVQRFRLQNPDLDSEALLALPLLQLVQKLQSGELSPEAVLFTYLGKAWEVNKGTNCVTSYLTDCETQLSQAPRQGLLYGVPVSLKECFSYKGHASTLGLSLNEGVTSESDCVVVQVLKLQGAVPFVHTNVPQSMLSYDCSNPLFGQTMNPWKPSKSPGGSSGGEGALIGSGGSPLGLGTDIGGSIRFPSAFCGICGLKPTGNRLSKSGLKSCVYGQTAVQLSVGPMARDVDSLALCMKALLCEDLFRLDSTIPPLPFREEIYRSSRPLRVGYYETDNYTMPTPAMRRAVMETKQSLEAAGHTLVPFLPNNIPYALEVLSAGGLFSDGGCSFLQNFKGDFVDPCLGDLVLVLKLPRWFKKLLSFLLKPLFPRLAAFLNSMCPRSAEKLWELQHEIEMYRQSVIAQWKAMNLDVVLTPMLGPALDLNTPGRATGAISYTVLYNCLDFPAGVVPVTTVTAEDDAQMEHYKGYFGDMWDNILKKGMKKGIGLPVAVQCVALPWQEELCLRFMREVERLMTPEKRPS
Procedure: (§1) The compounds of the invention were subjected to pharmacological tests to determine their inhibitory effect on the enzyme FAAH (Fatty Acid Amide Hydrolase).
Thus, mouse brains (minus the cerebellum) are removed and stored at −80° C. The membrane homogenates are prepared extemporaneously by homogenizing the tissues using a Precellys® machine in the reaction buffer (10 mM Tris-HCl, pH=8, 150 mM NaCl and 1 mM ethylenediaminetetraacetic acid (EDTA)). The enzymatic reaction is performed in 96-well Multiscreen filtration plates in a final volume of 70 μl. Reaction buffer supplemented with fatty acid-free bovine serum albumin (BSA, 1 mg/ml) is used for the enzymatic reaction and the dilution of the compounds and the [1-^3H ethanol-amine] anandamide. The reaction buffer containing BSA (43 μl/well), the diluted test compounds at different concentrations (7 μl/well containing 1% DMSO) and the membrane preparation (10 μl/well, i.e. 200 μg of tissue per test) are successively added to the wells. After preincubation of the compounds with the enzyme at 25° C. for 20 mins, the reaction is started by adding [1-^3H ethanolamine] anandamide. (Specific activity 15-20 Ci/mmol) diluted with cold anandamide (10 μl/well, final concentration 10 μM, 0.01 μCi per test). After incubation for 20 mins at 25° C., the enzymatic reaction is stopped by addition of a […] solution of active charcoal prepared in 1.5M NaCl and 0.5M HCl buffer (50 μl/well). The mixture is stirred for 10 mins and the aqueous phase containing the [1-^3H]ethanolamine is then recovered by filtration under vacuum and counted by liquid scintillation.

[2] = target: T1, enzyme FAAH (Fatty Acid Amide Hydrolase); test: FAAH fluorescence enzymatic test, hydrolysis of AAMC (protocol 2); format: biochemical; details: mouse brain homogenate, AAMC 10 μM, 20 mins preincubation at 25° C., 40 mins at 37° C., read-out: IC50 (concentration inhibiting 50% of the control enzymatic activity of FAAH)
Procedure: as §1
Thus, mouse brains (minus the cerebellum) are removed and stored at −80° C. The brain homogenates are prepared extemporaneously by homogenizing the tissues using a Precellys® machine in the reaction buffer (10 mM Tris-HCl, pH=8, 150 mM NaCl and 1 mM ethylenediamine-tetraacetic acid (EDTA)). The enzymatic reaction is performed in black polystyrene 384-well plates in a final volume of 50 μl. Reaction buffer supplemented with fatty acid-free bovine serum albumin (BSA, 1 mg/ml) is used for the enzymatic reaction, dilution of the compounds and dilution of the AAMC. The reaction buffer containing BSA (25 μl/well), the diluted test compounds at different concentrations (5 μl/well containing 1% DMSO) and the membrane preparation (10 μl/well, i.e. 200 μg of tissue per test) are successively added to the wells. After preincubation of the compounds with the enzyme for 20 mins at 25° C., the reaction is started by addition of 10 μl of substrate per well (AAMC, final concentration 10 μM). After incubation for 40 mins at 37° C., the aminomethyl coumarin (AMC) produced is measured by fluorescent counting (Envision plate reader).

male OF1 mice = test: test of analgesia: PBQ-induced abdominal stretching; format: in vivo, mouse; details: 30 mg/kg p.o. at 120 mins before PBQ
Procedure: The in vivo activity of the compounds of the invention was evaluated in a test of analgesia.
Thus, the intraperitoneal (i.p.) administration of PBQ (phenylbenzoquinone, 2 mg/kg in 0.9% sodium chloride solution containing 5% ethanol) to male OF1 mice weighing 25 to 30 g causes abdominal stretching, on average 30 torsions or contractions during the period of 5 to 15 mins after injection. The test compounds are administered orally (p.o.) or intraperitoneally (i.p.) suspended in Tween 80 at 0.5%, 60 mins or 120 mins before the administration of PBQ. Under these conditions, the most powerful compounds reduce by 35% to 80% the number of stretches induced by the PBQ, in a dosage range lying between 1 and 30 mg/kg. For example, compound 25 of Table 1 reduces by 50% the number of stretches induced by the PBQ, at a dose of 30 mg/kg p.o. at 120 mins.

Row | SMILES | pIC50 [1] | pIC50 [2] | melting point [°C] | reduction of the number of stretches induced by the PBQ (male OF1 mice) [%]
1 | CNC(=O)c1cc(COC(=O)N2CCC3(CC2)CC(Oc2cccc(-c4ccc(F)cc4)c2)C3)on1 [Compound 7, 3-methylcarbamoyl-isoxazol-5-ylmethyl 2-(4′-fluorobiphenyl-3-yloxy)-7-aza-spiro[3.5]nonane-7-carboxylate] | 7.72 | – | – | –
2 | CNC(=O)c1cc(COC(=O)N2CCC3(CC2)CC(Oc2ccc(-c4ccc(F)cc4)cc2)C3)on1 [Compound 19, 3-methylcarbamoyl-isoxazol-5-ylmethyl 2-(4′-fluorobiphenyl-4-yloxy)-7-aza-spiro[3.5]nonane-7-carboxylate] | – | 8.77 | 174 to 176 | –
3 | CNC(=O)c1cc(COC(=O)N2CC3(CC(Oc4ccc(-c5ccc(F)cc5)cc4)C3)C2)on1 [Compound 25, 3-methylcarbamoyl-isoxazol-5-ylmethyl 6-(4′-fluorobiphenyl-4-yloxy)-2-aza-spiro[3.3]heptane-2-carboxylate] | – | 9.34 | 163 to 165 | 50
4 | CNC(=O)c1cc(COC(=O)N2CCC3(CC(Oc4ccc(-c5ccc(F)cc5)cc4)C3)C2)on1 (single isomer, unassigned) [Compound 32, 3-methylcarbamoyl-isoxazol-5-ylmethyl 2-(4′-fluorobiphenyl-4-yloxy)-6-aza-spiro[3.4]octane-6-carboxylate] | 8.52 | – | 149 to 151 | –
5 | CNC(=O)c1cc(COC(=O)N2CCC3(CC(Oc4ccc(-c5ccc(F)cc5)cc4)C3)C2)on1 (single isomer, unassigned) [Compound 33, 3-methylcarbamoyl-isoxazol-5-ylmethyl 2-(4′-fluorobiphenyl-4-yloxy)-6-aza-spiro[3.4]octane-6-carboxylate] | 7.72 | – | 150 to 152 | –
6 | CNC(=O)c1cc(COC(=O)N2CCC3(CC(Oc4ccc(-c5ccc(F)cc5)cc4)C3)C2)on1 (single isomer, unassigned) [Compound 29, 3-methylcarbamoyl-isoxazol-5-ylmethyl 2-(4′-fluorobiphenyl-4-yloxy)-6-aza-spiro[3.4]octane-6-carboxylate] | 8.28 | – | 135 to 137 | –
7 | NC(=O)c1cc(COC(=O)N2CCC3(CC2)CC(Oc2ccc(-c4ccc(F)cc4)cc2)C3)on1 [Compound 18, 3-carbamoyl-isoxazol-5-ylmethyl 2-(4′-fluorobiphenyl-4-yloxy)-7-aza-spiro[3.5]nonane-7-carboxylate] | – | – | 163 to 165 | –
8 | NC(=O)c1cc(COC(=O)N2CC3(CC(Oc4ccc(Cl)c(F)c4)C3)C2)on1 [Compound 24, 3-carbamoyl-isoxazol-5-ylmethyl 6-(4-chloro-3-fluorophenoxy)-2-aza-spiro[3.3]heptane-2-carboxylate] | – | – | 135 to 137 | –
9 | NC(=O)c1cc(COC(=O)N2CCC3(CC2)CC(Oc2ccc(Cl)cc2)C3)on1 [Compound 4, 3-carbamoyl-isoxazol-5-ylmethyl 2-(4-chlorophenoxy)-7-aza-spiro[3.5]nonane-7-carboxylate] | – | – | 70 to 72 | –
10 | CCOc1ccc2ccc(OC3CC4(CCN(C(=O)OCc5cc(C(N)=O)no5)CC4)C3)cc2c1 [Compound 13, 3-carbamoyl-isoxazol-5-ylmethyl 2-(7-ethoxynaphthalen-2-yloxy)-7-aza-spiro[3.5]nonane-7-carboxylate] | – | – | 114 to 116 | –
11 | NC(=O)c1cc(COC(=O)N2CCC3(CC2)CC(Oc2ccc(Cl)c4ccccc24)C3)on1 [Compound 16, 3-carbamoyl-isoxazol-5-ylmethyl 2-(4-chloronaphthalen-1-yloxy)-7-aza-spiro[3.5]nonane-7-carboxylate] | – | – | 75 to 77 | –
12 | O=C(OCc1cscn1)N1CCC2(CC1)CC(Oc1ccc(Cl)cc1)C2 | – | – | 86 to 88 | –
13 | CNC(=O)c1cc(COC(=O)N2CCC3(CC2)CC(Oc2ccc(Cl)c(F)c2)C3)on1 [Compound 22, 3-methylcarbamoyl-isoxazol-5-ylmethyl 2-(4-chloro-3-fluorophenoxy)-7-aza-spiro[3.5]nonane-7-carboxylate] | – | – | 107 to 108 | –
